Laboratory results: the supplement of paper PMC11061612

Columns and labels:
Test in all cases: Bliss excess, mean over the matrix (fraction); higher = more synergy
8-MG-BA (Glioblastoma) = tested on: 8-MG-BA (Glioblastoma)
Outline: (§1)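 After 24 hours at 37°C and 5% CO2 in 1536-well plates, cells in DMEM/F12 or RPMI plus 10% FBS received two-drug dose matrices for 72 hours. Viability came from CellTiter-Glo 2.0 luminescence and was scaled as inhibition, anchored at 0 by vehicle wells and at 1 by blank wells. Combination Emax is taken as the second-highest inhibition in the matrix, and Bliss excess as the observed combination effect less EA + EB − EA·EB, with EA and EB the single-agent effects.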

A498 (Kidney Carcinoma) = tested on: A498 (Kidney Carcinoma)
Outline: as §1

ARH-77 (Non-Cancerous) = tested on: ARH-77 (Non-Cancerous)
Outline: as §1

[1] = tested on: BICR22 (Oral Cavity Carcinoma)
Outline: as §1

CAS-1 (Glioblastoma) = tested on: CAS-1 (Glioblastoma)
Outline: as §1

[2] = tested on: CCK-81 (Colorectal Carcinoma)
Outline: as §1

[3] = tested on: COLO-824 (Breast Carcinoma)
Outline: as §1

GI-ME-N (Neuroblastoma) = tested on: GI-ME-N (Neuroblastoma)
Outline: as §1

[4] = tested on: HCC1954 (Breast Carcinoma)
Outline: as §1

[5] = tested on: KARPAS-422 (B-Cell Non-Hodgkin's Lymphoma)
Outline: as §1

LN-405 (Glioblastoma) = tested on: LN-405 (Glioblastoma)
Outline: as §1

[6] = tested on: NCI-H1666 (Lung Adenocarcinoma)
Outline: as §1

NCI-H2591 (Mesothelioma) = tested on: NCI-H2591 (Mesothelioma)
Outline: as §1

NY (Osteosarcoma) = tested on: NY (Osteosarcoma)
Outline: as §1

[7] = tested on: SISO (Cervical Carcinoma)
Outline: as §1

[8] = tested on: SK-MES-1 (Squamous Cell Lung Carcinoma)
Outline: as §1

[9] = tested on: TT (Thyroid Gland Carcinoma)
Outline: as §1

[10] = tested on: TT2609-C02 (Thyroid Gland Carcinoma)
Outline: as §1

U-2-OS (Osteosarcoma) = tested on: U-2-OS (Osteosarcoma)
Outline: as §1

[11] = tested on: VCaP (Prostate Carcinoma)
Outline: as §1

SMILES	Bliss excess (8-MG-BA (Glioblastoma))	Bliss excess (A498 (Kidney Carcinoma))	Bliss excess (ARH-77 (Non-Cancerous))	Bliss excess [1]	Bliss excess (CAS-1 (Glioblastoma))	Bliss excess [2]	Bliss excess [3]	Bliss excess (GI-ME-N (Neuroblastoma))	Bliss excess [4]	Bliss excess [5]	Bliss excess (LN-405 (Glioblastoma))	Bliss excess [6]	Bliss excess (NCI-H2591 (Mesothelioma))	Bliss excess (NY (Osteosarcoma))	Bliss excess [7]	Bliss excess [8]	Bliss excess [9]	Bliss excess [10]	Bliss excess (U-2-OS (Osteosarcoma))	Bliss excess [11]
NC1(C(=O)N[C@@H](CCO)c2ccc(Cl)cc2)CCN(c2ncnc3[nH]ccc23)CC1 [Capivasertib] + COc1nnc2ccc(N3CCC(c4ccc(OCCN5CCN(C)C(=O)[C@H]5C)cc4)CC3)nn12 [AZD5153] (first compound max 10 µM, 7x7, partner max 1 µM)	-0.0338	0.0826	-0.0253	0.024	0.0268	-0.0176	0.0218	-0.0309	0.0641	-0.0511	-0.013	-0.0136	0.0183	-0.0649	0.009	0.046	0.0241	-0.0366	0.0156	0.0181
CN(CCO)CC[C@H](CSc1ccccc1)Nc1ccc(S(=O)(=O)NC(=O)c2ccc(N3CCC([C@@H](O)c4ccccc4-c4ccc(Cl)cc4)CC3)cc2)cc1S(=O)(=O)C(F)(F)F [AZD4320] + C=CCn1c(=O)c2cnc(Nc3ccc(N4CCN(C)CC4)cc3)nc2n1-c1cccc(C(C)(C)O)n1 [AZD1775] (first compound max 1 µM, partner max 1 µM)	-0.0417	0.0368	-0.0449	0.0848	0.0261	-0.0198	0.0803	-0.0524	0.0823	0.0569	0.0173	-0.0717	-0.0701	0.0694	-0.0116	0.0356	-0.0048	-0.0244	-0.0059	0.0072
CC1(C)CCC(CN2CCN(c3ccc(C(=O)NS(=O)(=O)c4ccc(NCC5CCOCC5)c([N+](=O)[O-])c4)c(Oc4cnc5[nH]ccc5c4)c3)CC2)=C(c2ccc(Cl)cc2)C1 [Venetoclax] + C=CCn1c(=O)c2cnc(Nc3ccc(N4CCN(C)CC4)cc3)nc2n1-c1cccc(C(C)(C)O)n1 [AZD1775] (first compound max 1 µM, partner max 1 µM)	-0.0307	-0.0031	0.025	0.0453	0.0375	-0.066	0.0202	-0.0689	-0.0366	0.0389	0.0151	-0.0228	-0.0497	0.0137	-0.0765	-0.0237	0.0252	-0.0696	-0.018	-0.0013
Cc1c2c(nn1C)CSCc1cc(n(C)n1)CSc1cc(c3ccccc3c1)OCCCc1c(C(=O)O)n(C)c3c-2c(Cl)ccc13 [AZD5991] + C[C@@H]1COCCN1C2=NC(=NC(=C2)C3(CC3)[S@](=N)(=O)C)C4=C5C=CNC5=NC=C4 [AZD6738] (first compound max 1 µM, 7x7, partner max 10 µM)	0.0326	0.107	-0.014	0.0224	0.109	0.0173	-0.009	0.0481	0.0518	-0.0209	0.0493	0.0156	0.023	0.0486	0.0628	-0.0119	-0.0066	0.0043	0.0276	0.0348
COc1nnc2ccc(N3CCC(c4ccc(OCCN5CCN(C)C(=O)[C@H]5C)cc4)CC3)nn12 [AZD5153] + C[C@@H]1COCCN1C2=NC(=NC(=C2)C3(CC3)[S@](=N)(=O)C)C4=C5C=CNC5=NC=C4 [AZD6738] (first compound max 1 µM, 7x7, partner max 10 µM)	-0.0849	-0.0563	-0.0293	-0.116	0.0116	0.0184	0.0541	0.0858	0.0323	-0.0759	-0.0235	-0.0271	0.0634	-0.0188	0.008	0.0093	0.0167	0.0179	0.0409	-0.0521
